Data: patent US10870647B2, “Imidazopyridine derivative, method for preparing same, and pharmaceutical composition containing same as active ingredient for preventing or treating cancer” (DAEGU-GYEONGBUK MEDICAL INNOVATION FOUNDATION, priority 2016, dated 2020)

Legend:
Experiment in all cases: Kinase selectivity, scanMAX Kinase assay panel (DiscoverX), % control at 1 uM
Type in all cases: binding
[1] = biological target: T1, scanMAX Kinase assay panel (Homo sapiens, UniProt O15197); details: EPHB6; 1 uM; read-out: Percent Control (%)
T1 construct: purchased DiscoverX
T1 sequence (O15197 32-1021): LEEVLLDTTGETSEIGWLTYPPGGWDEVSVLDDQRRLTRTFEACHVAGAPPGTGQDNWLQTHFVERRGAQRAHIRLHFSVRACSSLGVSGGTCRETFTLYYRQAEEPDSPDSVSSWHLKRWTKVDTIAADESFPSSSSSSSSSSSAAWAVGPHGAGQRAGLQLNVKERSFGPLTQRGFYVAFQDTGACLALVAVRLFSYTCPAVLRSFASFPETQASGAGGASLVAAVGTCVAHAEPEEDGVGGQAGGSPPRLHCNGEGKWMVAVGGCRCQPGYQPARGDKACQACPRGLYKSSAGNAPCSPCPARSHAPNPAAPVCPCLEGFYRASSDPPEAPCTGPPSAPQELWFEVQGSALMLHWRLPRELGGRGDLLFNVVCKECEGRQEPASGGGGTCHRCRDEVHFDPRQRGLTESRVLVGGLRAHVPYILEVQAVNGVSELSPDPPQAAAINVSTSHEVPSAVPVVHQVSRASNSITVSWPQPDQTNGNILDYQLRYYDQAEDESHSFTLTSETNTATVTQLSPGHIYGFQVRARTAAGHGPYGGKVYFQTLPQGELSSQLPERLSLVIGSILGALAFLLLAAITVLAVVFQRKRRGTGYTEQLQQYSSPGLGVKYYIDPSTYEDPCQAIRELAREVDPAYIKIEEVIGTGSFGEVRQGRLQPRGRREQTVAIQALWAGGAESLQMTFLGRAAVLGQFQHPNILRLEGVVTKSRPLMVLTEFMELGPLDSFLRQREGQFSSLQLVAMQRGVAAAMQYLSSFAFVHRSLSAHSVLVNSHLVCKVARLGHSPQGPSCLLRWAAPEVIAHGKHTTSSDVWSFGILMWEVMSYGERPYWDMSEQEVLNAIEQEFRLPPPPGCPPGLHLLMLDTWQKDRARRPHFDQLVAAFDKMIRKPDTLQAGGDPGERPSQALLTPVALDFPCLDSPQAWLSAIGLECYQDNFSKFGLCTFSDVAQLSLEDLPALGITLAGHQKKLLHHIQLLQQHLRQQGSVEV
Outline: (§1)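 Activity was called for kinases showing % control under 35, calculated from compound signal relative to positive and negative controls. Each compound screened at 1 uM against the DiscoverX scanMAX panel.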

[2] = biological target: T2, scanMAX Kinase assay panel (Homo sapiens, UniProt O43283); details: LZK; 1 uM; read-out: Percent Control (%)
T2 construct: purchased DiscoverX
T2 sequence (O43283 1-966): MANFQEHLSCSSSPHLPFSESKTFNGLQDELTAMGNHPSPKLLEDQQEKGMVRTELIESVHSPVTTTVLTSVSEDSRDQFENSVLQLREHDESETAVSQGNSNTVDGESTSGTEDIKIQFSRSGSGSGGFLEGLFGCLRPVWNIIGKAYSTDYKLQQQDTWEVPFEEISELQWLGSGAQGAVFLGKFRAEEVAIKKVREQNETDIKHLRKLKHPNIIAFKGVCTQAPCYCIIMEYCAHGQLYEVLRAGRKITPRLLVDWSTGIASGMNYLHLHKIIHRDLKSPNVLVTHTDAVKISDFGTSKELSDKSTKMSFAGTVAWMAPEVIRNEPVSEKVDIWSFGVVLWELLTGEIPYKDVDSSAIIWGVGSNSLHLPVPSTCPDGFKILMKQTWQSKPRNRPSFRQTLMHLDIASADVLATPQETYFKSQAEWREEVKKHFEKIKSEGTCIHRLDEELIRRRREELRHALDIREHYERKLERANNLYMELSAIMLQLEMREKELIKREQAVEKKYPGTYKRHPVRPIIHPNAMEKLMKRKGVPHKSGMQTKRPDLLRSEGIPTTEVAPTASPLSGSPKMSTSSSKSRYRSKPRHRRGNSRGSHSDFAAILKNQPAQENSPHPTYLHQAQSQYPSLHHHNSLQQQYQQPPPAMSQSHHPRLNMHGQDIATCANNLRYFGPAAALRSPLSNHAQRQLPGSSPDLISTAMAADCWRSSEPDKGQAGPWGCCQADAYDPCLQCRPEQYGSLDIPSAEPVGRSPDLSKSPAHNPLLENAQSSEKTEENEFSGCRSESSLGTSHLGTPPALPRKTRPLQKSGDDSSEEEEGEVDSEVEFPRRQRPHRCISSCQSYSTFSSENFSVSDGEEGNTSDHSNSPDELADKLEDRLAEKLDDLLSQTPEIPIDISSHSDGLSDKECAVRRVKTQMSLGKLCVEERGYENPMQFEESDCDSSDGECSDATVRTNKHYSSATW
Outline: as §1

[3] = biological target: T3, scanMAX Kinase assay panel (Homo sapiens, UniProt O43293); details: DAPK3; 1 uM; read-out: Percent Control (%)
T3 construct: purchased DiscoverX
T3 sequence (O43293 whole entry): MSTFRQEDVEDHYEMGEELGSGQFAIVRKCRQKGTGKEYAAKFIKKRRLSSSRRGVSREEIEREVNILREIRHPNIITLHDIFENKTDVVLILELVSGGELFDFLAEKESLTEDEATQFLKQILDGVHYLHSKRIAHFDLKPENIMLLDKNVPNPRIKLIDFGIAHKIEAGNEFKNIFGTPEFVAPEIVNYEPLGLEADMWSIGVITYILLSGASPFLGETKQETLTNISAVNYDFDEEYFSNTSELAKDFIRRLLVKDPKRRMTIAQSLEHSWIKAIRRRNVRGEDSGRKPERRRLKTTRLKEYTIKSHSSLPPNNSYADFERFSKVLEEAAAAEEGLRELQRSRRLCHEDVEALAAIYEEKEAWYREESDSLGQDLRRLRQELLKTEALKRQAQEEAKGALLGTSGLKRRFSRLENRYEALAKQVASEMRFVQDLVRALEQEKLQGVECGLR
Outline: as §1

[4] = biological target: T4, scanMAX Kinase assay panel (Homo sapiens, UniProt P27448); details: MARK3; 1 uM; read-out: Percent Control (%)
T4 construct: purchased DiscoverX
T4 sequence (P27448 whole entry): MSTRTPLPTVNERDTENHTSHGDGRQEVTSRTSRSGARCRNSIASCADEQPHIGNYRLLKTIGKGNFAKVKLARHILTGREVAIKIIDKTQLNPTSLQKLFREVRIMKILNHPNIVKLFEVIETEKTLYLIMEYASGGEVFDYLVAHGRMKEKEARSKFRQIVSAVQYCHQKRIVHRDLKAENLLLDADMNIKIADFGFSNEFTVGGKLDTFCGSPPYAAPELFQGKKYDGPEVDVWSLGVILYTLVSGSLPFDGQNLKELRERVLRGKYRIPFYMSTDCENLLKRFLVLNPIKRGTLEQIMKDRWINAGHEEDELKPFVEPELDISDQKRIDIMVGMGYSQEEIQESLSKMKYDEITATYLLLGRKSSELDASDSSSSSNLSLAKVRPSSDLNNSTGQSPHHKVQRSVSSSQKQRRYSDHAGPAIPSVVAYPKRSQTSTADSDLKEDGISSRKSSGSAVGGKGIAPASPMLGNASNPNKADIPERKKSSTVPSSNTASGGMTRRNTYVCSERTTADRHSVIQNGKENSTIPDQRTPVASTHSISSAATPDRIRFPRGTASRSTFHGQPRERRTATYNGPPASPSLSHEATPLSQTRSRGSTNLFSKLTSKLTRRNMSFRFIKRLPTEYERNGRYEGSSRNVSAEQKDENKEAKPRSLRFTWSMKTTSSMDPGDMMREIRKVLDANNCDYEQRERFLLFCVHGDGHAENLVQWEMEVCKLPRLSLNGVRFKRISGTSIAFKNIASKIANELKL
Outline: as §1

[5] = biological target: T5, scanMAX Kinase assay panel (Homo sapiens, UniProt Q9Y2H1); details: NDR2; 1 uM; read-out: Percent Control (%)
T5 construct: purchased DiscoverX
T5 sequence (Q9Y2H1 whole entry): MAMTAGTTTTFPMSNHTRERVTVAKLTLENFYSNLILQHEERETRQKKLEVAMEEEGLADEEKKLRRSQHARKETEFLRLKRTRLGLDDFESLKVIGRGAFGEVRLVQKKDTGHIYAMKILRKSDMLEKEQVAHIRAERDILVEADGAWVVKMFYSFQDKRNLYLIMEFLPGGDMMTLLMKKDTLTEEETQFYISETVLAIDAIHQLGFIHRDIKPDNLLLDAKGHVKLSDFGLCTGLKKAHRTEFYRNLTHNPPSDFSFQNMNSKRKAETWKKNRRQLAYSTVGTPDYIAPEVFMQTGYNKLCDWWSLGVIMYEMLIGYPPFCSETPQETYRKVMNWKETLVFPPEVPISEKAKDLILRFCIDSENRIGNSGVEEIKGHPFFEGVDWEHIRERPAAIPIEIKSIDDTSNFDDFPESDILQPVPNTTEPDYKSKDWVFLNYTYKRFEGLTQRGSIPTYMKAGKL
Outline: as §1

Q: Which remaining binding at 1 µM [1] does the source give for `Cc1ccc(C(=O)Nc2ccc(CN3CCN(C)CC3)c(C(F)(F)F)c2)cc1C#Cc1cnc2c(Nc3cnn(C)c3)cccn12` [Example 1, 4-methyl-3-((8-((1-methyl-1H-pyrazol-4-yl)amino)imidazo[1,2-a]pyridin-3-yl)ethynyl)-N-(4-((4-methylpiperazin-1-yl)methyl)-3-(trifluoromethyl)phenyl)benzamide] here?
A: The remaining binding at 1 µM was 1%.

Q: What about the remaining binding at 1 µM [2] of the same molecule?
A: Its remaining binding at 1 µM is 71%.

Q: What about the remaining binding at 1 µM [3] of the same molecule?
A: The remaining binding at 1 µM was 68%.

Q: And the remaining binding at 1 µM [4]?
A: The remaining binding at 1 µM was 53%.

Q: And the remaining binding at 1 µM [5]?
A: Its remaining binding at 1 µM is 23%.

Q: With `Cc1cn(-c2cc(NC(=O)c3ccc(C)c(C#Cc4cnc5c(Nc6cnn(C)c6)cccn45)c3)cc(C(F)(F)F)c2)cn1` [Example 12, 4-methyl-N-(3-(4-methyl-1H-imidazol-1-yl)-5-(trifluoromethyl)phenyl)-3-((8-((1-methyl-1H-pyrazol-4-yl)amino)imidazo[1,2-a]pyridin-3-yl)ethynyl)benzamide] as the molecule, how does the remaining binding at 1 µM [1] read?
A: Its remaining binding at 1 µM is 0%.

Q: What about the remaining binding at 1 µM [2] of the same molecule?
A: Its remaining binding at 1 µM is 100%.

Q: And the remaining binding at 1 µM [3]?
A: Its remaining binding at 1 µM is 100%.

Q: And the remaining binding at 1 µM [4]?
A: Its remaining binding at 1 µM is 94%.

Q: What about the remaining binding at 1 µM [5] of the same molecule?
A: Its remaining binding at 1 µM is 84%.

Q: Which results are given for `Cc1ccc(NC(=O)C2(C(=O)Nc3ccc(F)cc3)CC2)cc1C#Cc1cnc2c(Nc3cnn(C(C)C)c3)cccn12` [Example 78]?
A: remaining binding at 1 µM [1]: 0%; remaining binding at 1 µM [2]: 94%; remaining binding at 1 µM [3]: 100%; remaining binding at 1 µM [4]: 100%; remaining binding at 1 µM [5]: 98%
